{"source": "patent US20220338477A1", "about": "“MYCOBACTERIUM BACTERICIDE” (SANKEI CO., LTD., priority 2019, published 2022)", "key": {"M. intracellulare": {"tested_on": "M. intracellulare", "assay": "Test for studying disinfecting effect of chlorous acid aqueous solution and sodium hypochlorite on M. intracellulare", "type": "cell-based, Mycobacterium intracellulare", "conditions": "for free chlorine concentration (as Cl) at which a disinfecting effect (reducing the bacteria count 4 log or greater) is exhibited: contact time 1 min", "method": "(§1) As a measuring method of free chlorine (as Cl), a buffer and a DPD indicator are added to a sample and a wavelength of 510 nm is measured with an absorption spectrophotometer, and for measurement of free chlorine (as Cl) in the presence of an organic matter, measurement is taken at a wavelength of 655 nm using a TMB reagent to find the concentration from the measurement values. Further, a method of conducting a test for studying the disinfecting effect prepares free chlorine (as Cl) of a test agent by a DPD method, contacts each agent with an organic matter-containing bacterial solution, neutralizes the solution with sodium thiosulfate after a certain period of time has passed, and checks the viable bacteria count of the neutral solution.\nFor the “chlorous acid aqueous solution formulation manufactured with chlorous acid aqueous solution” prepared based on the preparation method described above, the concentration of “chlorous acid aqueous solution” was measured based on the “Quantification method of chlorous acid aqueous solution” described above, and buffer prepared to achieve the free chlorine concentration described in each Example (phosphate buffer comprising dipotassium hydrogen phosphate and potassium dihydrogen phosphate) was used to prepare the chlorous acid aqueous solution of each Example.\nThe disinfecting effects of chlorous acid aqueous solutions and sodium hypochlorite on M. intracellulare were studied in the absence of an organic matter and in the presence of an organic matter, i.e., 0.5% bovine serum albumin (hereinafter, BSA) (FIG. 1). If an effect of reducing the bacteria count is 4 log or greater, the agent is considered as having a disinfecting effect."}, "[1]": {"tested_on": "chromosomal DNA of M. intracellulare", "assay": "Pulsed-field gel electrophoresis of chromosomal DNA after disinfection of M. intracellulare", "type": "cell-based, Mycobacterium intracellulare", "conditions": "compared with water", "source_text": "In order to study the disinfection mechanism of chlorous acid aqueous solutions, with the understanding that a chlorous acid aqueous solution is unlikely to disinfect by acting on the bacterial surface in view of the results of SEM, chromosomal DNA was extracted from bacteria after disinfection, and the state of the chromosomal DNA was examined through pulsed-field gel electrophoresis in order to study the effect of a chlorous acid aqueous solution on chromosomal DNA of bacteria."}, "[2]": {"tested_on": "other mycobacteria (JCM135429, JCM135430, JCM135431, JCM135432, JCM6387, JCM6390, JCM13569)", "assay": "Disinfecting effect on other mycobacteria", "type": "cell-based", "method": "as §1\nAdditional studies were conducted to find whether a disinfecting effect is observed on other mycobacteria. In the absence of organic matters, an effect of chlorous acid aqueous solutions was also observed on other mycobacteria at free chlorine of 50 ppm or greater, whereas an effect was not observed from sodium hypochlorite at 200 ppm (FIG. 7). The same results as the results for M. intracellulare were obtained."}}}
{"smiles": "OCl", "note": "[sodium hypochlorite]", "values": [{"measurement": "disinfecting effect (FIG. 1)", "setting": "M. intracellulare; absence and presence of organic matter (0.5% BSA)", "value": "not found"}, {"measurement": "free chlorine concentration (as Cl) at which a disinfecting effect (reducing the bacteria count 4 log or greater) is exhibited", "setting": "M. intracellulare; absence of an organic matter", "value": "> 200", "unit": "ppm"}, {"measurement": "free chlorine concentration (as Cl) at which a disinfecting effect (reducing the bacteria count 4 log or greater) is exhibited", "setting": "M. intracellulare; presence of an organic matter (0.5% BSA)", "value": "> 1000", "unit": "ppm"}, {"measurement": "state of chromosomal DNA band in pulsed-field gel electrophoresis", "setting": "[1]", "value": "a band is formed at the same position as water"}, {"measurement": "free chlorine at which a disinfecting effect was observed", "setting": "[2]; absence of organic matters (FIG. 7)", "value": "> 200", "unit": "ppm"}, {"measurement": "free chlorine at which a disinfecting effect was observed", "setting": "[2]; presence of 0.5% BSA (FIG. 8)", "value": "> 1000", "unit": "ppm"}]}
